Starred links: 1 amine or outer side, 2 acyl side, 3 side chain; linkers in the order of their positions; H or OH if unused. Non-standard residues stand in square brackets, D forms with d. Residues, ends and D or L forms follow the SMILES beside them. *: point of attachment. Dolaproine = CO[C@@H]([C@@H]1CCCN1)[C@@H](C)C(=O)O; Dil = CC[C@H](C)[C@H](NC)[C@@H](CC(=O)O)OC; PABC = O=C(OCc1ccc(N[*:1])cc1)[*:2]; X1 = O=C(CCCC(=O)*)ON1C(=O)CCC1=O; X2 = C[C@@H](N*)[C@@H](O)c1ccccc1; Cit = NC(=O)NCCC[C@H](N)C(=O)O; NMeV = CN[C@H](C(=O)O)C(C)C
Key:
CTG-0178 = experiment: Champions TumorGraft NSCLC PDX efficacy, model CTG-0178; type: in vivo, Mus musculus
Procedure: Mice were implanted subcutaneously into the left flank with tumor fragments from one of the various models. After tumors grew to an average of 150-300 mm^3, mice were treated by IV administration Q7Dx4 (n=2) with vehicle or 3 mg/kg of BT5528. Effects on tumor growth were evaluated by measuring percent tumor growth inhibition (% TGI), and the number of complete responders (CR), partial responders (PR), and tumor-free survivors (TFS). Tolerability was assessed by body weight loss, lethality, and clinical signs of adverse treatment-related side effects. Tumor volumes and body weights were measured twice a week.
Dosing solutions of BT5528 […] were pre-formulated. These dosing solutions were stored at −80° C. in the dark. On each day of dosing, a frozen aliquot of each test agent was thawed, stored at 2-8° C. and used for dosing.
The animals used in this study are described below: • Species: Mus musculus • Strain: Athymic Nude-Foxn1^nu (immune-compromised) • Source: Envigo (Indianapolis, Ind., USA) • Number of animals per group: 2 • Age and sex: At least 6-8 weeks of age at start of dosing, female • Weight: At least 18 grams at start of dosing • Acclimation period: 3 days
Stock mice were implanted with tumor cells from Champions TumorGraft® models CTG-0160, CTG-0170, CTG-0178, CTG-0192, CTG-0363, CTG-0808, CTG-0838, CTG-0848, CTG-1212, CTG-1502, CTG-1535, CTG-2011, CTG-2393, CTG-2539 or CTG-2540. After the tumors reached 1000-1500 mm^3, they were harvested and the tumor fragments (approximately 5×5×5 mm^3) were implanted SC in the left flank of the female study mice. Each animal was implanted with a specific passage lot and documented. Tumor growth was monitored twice a week using digital calipers and the tumor volume (TV) was calculated using the formula (0.52×[length×width^2]). When the TV reached an average volume of 150-300 mm^3, animals were matched by tumor size and assigned into Vehicle Control and treatment groups (n=2/group) and dosing was initiated on Day 0. After the initiation of dosing on Day 0, animals were weighed twice per week using a digital scale and TV was measured twice per week and also on the final day of study. The study was completed when the mean tumor volume of Vehicle Control reached 1500 mm^3 or up to Day 60, whichever occurred first.
Beginning on Day 0, animals were observed daily and weighed twice weekly using a digital scale; data including individual and mean gram weights, mean percent weight change versus Day 0 (% vD0) were recorded for each group and % vD0 plotted at study completion. […] Treatment resulting in a mean % vD0>20% and/or >10% mortality was considered above the maximum tolerated dose. Maximum mean % vD0 (weight nadir) for each treatment group was reported at study completion.
Inhibition of tumor growth was determined by calculating the percent TGI (100%×[1−(final MTV−initial MTV of a treated group)/(final MTV−initial MTV of the control group)]). Treatment started on Day 0.
Additional endpoints used to evaluate efficacy were: the number of complete responders (CR), partial responders (PR), and tumor-free survivors (TFS). PRs were considered exclusive of CRs, as were TFS.
Statistical analyses of anti-tumor efficacy were performed using one-way ANOVA followed by Dunnett's multiple comparisons test (GraphPad Prism version 8.2.0). Significant p-values=<0.05.
Animals were dosed according to the schedule on Table 7-1. The study was terminated on Day 28.

PC-3 xenograft = experiment: In vivo efficacy in PC-3 xenograft, male Balb/c nude mice (Example 3); set-up: species or system Mus Musculus
Procedure: The objective of the research is to evaluate the in vivo anti-tumor efficacy of test articles in treatment of PC-3 xenograft in Balb/c nude mice.
The tumor cells were maintained in F-12K medium supplemented with 10% heat inactivated fetal bovine serum at 37° C. in an atmosphere of 5% CO2 in air. The tumor cells were routinely subcultured twice weekly. The cells growing in an exponential growth phase were harvested and counted for tumor inoculation.
Each mouse was inoculated subcutaneously at the right flank with PC-3 tumor cells (10×10^6) in 0.2 ml of PBS for tumor development. 52 animals were randomized when the average tumor volume reached 454 mm^3. The test article administration and the animal numbers in each group were shown in the experimental design table.
The major endpoint was to see if the tumor growth could be delayed or mice could be cured. Tumor volume was measured three times weekly in two dimensions using a caliper, and the volume was expressed in mm3 using the formula: V=0.5 a×b^2 where a and b are the long and short diameters of the tumor, respectively. The tumor size was then used for calculations of T/C value. The T/C value (in percent) is an indication of antitumor effectiveness; T and C are the mean volumes of the treated and control groups, respectively, on a given day.
TGI was calculated for each group using the formula: TGI (%)=[1−(Ti−T0)/(Vi−V0)]×100; Ti is the average tumor volume of a treatment group on a given day, T0 is the average tumor volume of the treatment group on the day of treatment start, Vi is the average tumor volume of the vehicle control group on the same day with Ti, and V0 is the average tumor volume of the vehicle group on the day of treatment start.
Tumor growth inhibition rate for test articles in the PC-3 xenograft model was calculated based on tumor volume measurements at day 20 after the start of the treatment.

[1] = CTG-0178, 3 mg/kg IV Q7Dx4, Day 0-28

CC[C@H](C)[C@@H]([C@@H](CC(=O)N1CCC[C@H]1[C@H](OC)[C@@H](C)C(=O)N[C@H](C)[C@@H](O)c1ccccc1)OC)N(C)C(=O)[C@@H](NC(=O)[C@H](C(C)C)N(C)C(=O)OCc1ccc(NC(=O)[C@H](CCCNC(N)=O)NC(=O)[C@@H](NC(=O)CCCC(=O)ON2C(=O)CCC2=O)C(C)C)cc1)C(C)C [BT5528] (X1-V[Cit][PABC][NMeV]V[Dil][Dolaproine]-X2)
mean body weight loss (CTG-0178; 3 mg/kg IV Q7Dx4): minor mean body weight losses on Day 18 | MTV (mean tumor volume) (CTG-0178; 3 mg/kg IV Q7Dx4, Day 28): 1145±271 mm^3 | TGI (CTG-0178; 3 mg/kg IV Q7Dx4, Day 28): 16% | # CR (complete responders) (CTG-0178; [1]): 0/0/0 | # PR (partial responders) (CTG-0178; [1]): 0/0/0 | # TFS (tumor-free survivors) (CTG-0178; [1]): 0/0/0 | % TGI (CTG-0178; CTG-0178, 3 mg/kg IV Q7Dx4, Day 28): 16% | Day 28 Tumor Volume Mean TV ± SEM (CTG-0178; CTG-0178, BT5528 3 mg/kg IV Q7Dx4, Day 28, n=2): 1145 ± 271 mm^3 | tumor relapse after ceasing the treatment (PC-3 xenograft; 0.5 mg/kg qw or 0.5 mg/kg q2w): obvious tumor relapse after ceasing the treatment | tumor relapse after ceasing the treatment (PC-3 xenograft; 1.5 mg/kg q2w): tumor relapse after ceasing the treatment | tumor relapse after ceasing the treatment (PC-3 xenograft; 1.5 mg/kg qw): didn't show any tumor relapse until day 48 | further treatment after relapse (PC-3 xenograft; 1.5 mg/kg qw from day 52 in mice first treated with 0.5 mg/kg qw or q2w): worked well on the tumor regression | further dosing after relapse (PC-3 xenograft; 1.5 mg/kg qw from day 52 in mice first treated with 1.5 mg/kg q2w): didn't work on complete tumor regression | T/C (PC-3 xenograft; 0.167 mpk i.v. qw, day 20): 50.2% | TGI (PC-3 xenograft; 0.167 mpk i.v. qw, day 20): 61.4% | Tumor volume (PC-3 xenograft; 0.167 mpk i.v. qw, day 20): 1188 mm^3 | T/C (PC-3 xenograft; 0.5 mpk i.v. q2w, day 20): 22.4% | TGI (PC-3 xenograft; 0.5 mpk i.v. q2w, day 20): 96.0% | Tumor volume (PC-3 xenograft; 0.5 mpk i.v. q2w, day 20): 530 mm^3 | Tumor volume (PC-3 xenograft; 0.5 mpk i.v. qw, day 0): 451 mm^3 | Tumor volume (PC-3 xenograft; 0.5 mpk i.v. qw, day 2): 622 mm^3 | Tumor volume (PC-3 xenograft; 0.5 mpk i.v. qw, day 4): 519 mm^3 | Tumor volume (PC-3 xenograft; 0.5 mpk i.v. qw, day 6): 460 mm^3 | Tumor volume (PC-3 xenograft; 0.5 mpk i.v. qw, day 8): 398 mm^3 | Tumor volume (PC-3 xenograft; 0.5 mpk i.v. qw, day 10): 329 mm^3 | Tumor volume (PC-3 xenograft; 0.5 mpk i.v. qw, day 13): 260 mm^3 | Tumor volume (PC-3 xenograft; 0.5 mpk i.v. qw, day 15): 249 mm^3 | Tumor volume (PC-3 xenograft; 0.5 mpk i.v. qw, day 17): 231 mm^3 | T/C (PC-3 xenograft; 0.5 mpk i.v. qw, day 20): 9.9% | TGI (PC-3 xenograft; 0.5 mpk i.v. qw, day 20): 111.4% | Tumor volume (PC-3 xenograft; 0.5 mpk i.v. qw, day 20): 234 mm^3 | T/C (PC-3 xenograft; 1.5 mpk i.v. q2w, day 20): 5.4% | TGI (PC-3 xenograft; 1.5 mpk i.v. q2w, day 20): 117.0% | Tumor volume (PC-3 xenograft; 1.5 mpk i.v. q2w, day 20): 128 mm^3 | Tumor volume (PC-3 xenograft; 1.5 mpk i.v. qw, day 0): 458 mm^3 | Tumor volume (PC-3 xenograft; 1.5 mpk i.v. qw, day 2): 587 mm^3 | Tumor volume (PC-3 xenograft; 1.5 mpk i.v. qw, day 4): 494 mm^3 | Tumor volume (PC-3 xenograft; 1.5 mpk i.v. qw, day 6): 363 mm^3 | Tumor volume (PC-3 xenograft; 1.5 mpk i.v. qw, day 8): 283 mm^3 | Tumor volume (PC-3 xenograft; 1.5 mpk i.v. qw, day 10): 237 mm^3 | Tumor volume (PC-3 xenograft; 1.5 mpk i.v. qw, day 17): 155 mm^3 | T/C (PC-3 xenograft; 1.5 mpk i.v. qw, day 20): 5.5% | TGI (PC-3 xenograft; 1.5 mpk i.v. qw, day 20): 117.2% | Tumor volume (PC-3 xenograft; 1.5 mpk i.v. qw, day 20): 131 mm^3 | treatment of relapsed Docetaxel-pretreated mice (PC-3 xenograft; BT5528 1.5 mg/kg qw from day 42): worked well on tumor regression | measurable tumor regression by day after dosing (PC-3 xenograft; PC-3 xenograft): ≤ 4 days | efficacy with intermittent dosing (PC-3 xenograft; dosing every 2 weeks): efficacious with intermittent dosing
